Results on four compounds are retold here after US11447495B2, “Substituted benzo[f]imidazo[1,5-a][1,4]diazepines as GABA(a) receptor modulators” (priority 2016, dated 2022).

A short description of data set [1]: Airway hyperresponsiveness (sRaw) to methacholine in ovalbumin asthma model. In kind it is in vivo, ova s/c BALB/c mice. The following applies: oral gavage, 100 mg/kg twice daily for 5 days, methacholine challenge. On the procedure:
Compounds described herein may reduce airway hyperresponsiveness in animal models of asthma. Therefore, mice may be sensitized three times with intra-peritoneal (i.p.) injections of 2 mg/kg/d of ovalbumin (Ova) emulsified in […] on days 0, 7 and 14 in a total volume of 100 μL. In addition, mice may be challenged intra-nasally (i.n.) with 1 mg/kg/d Ova for 5 days from days 23-27. Control mice may be sensitized with Ova and challenged with saline. The airway hyperresponsiveness measurements may be carried out with DSI's Buxco® FinePointe Non-Invasive Airway Mechanics (NAM) instrument consisting of a nasal chamber in combination with the thoracic chamber that allows the computation of specific airway resistance (sRaw). Treated conscious, spontaneously breathing Ova S/C mice may be exposed to aerosolized phosphate buffered saline (PBS) (for the baseline measurement) or methacholine (1.5625-12.5 mg/mL) for 1 minute and readings (sRaw) may be taken and averaged for 3 minutes after each nebulization.
Drug treatment protocol: Sterile solutions of compounds were prepared in 2% hydroxypropyl methylcellulose solution (Sigma-Aldrich, St. Louis, Mo.) and 2.5% polyethylene glycol (Sigma Aldrich, St. Louis, Mo.) for oral administration in a biological safety cabinet. A fine suspension was obtained by grinding the mixture with a mortar and pestle. Drugs were administered individually at 100 mg/kg by oral gavage (200 ul) with 20G gavage needles (Kent Scientific Corporation, Torrington Conn.) to groups of ova s/c BALB/c twice daily for 5 days during the ova challenge period. Mice received a single p.o. dose of the compounds just before airway parameter measurements. Compounds for i.p. injection were prepared in 10% DMSO, 40% propylene glycol, and 50% PBS and given as 100 ul injection. Mice were monitored daily after drug administration. Assessment of Airway hyper-responsiveness: Airway hyper-responsiveness to methacholine in conscious, spontaneously breathing animals was measured by DSI's Buxco® FinePointe Non-Invasive Airway Mechanics (NAM) instrument. Before measurements were taken, mice were acclimated to the chambers 15 minutes daily for 5 days. In addition, an ovalbumin sensitization and challenge protocol consists of randomized male BALB/c mice that were sensitized three times with intra-peritoneal (i.p.) injections of 2 mg/kg/d of ovalbumin (Ova) (Sigma-Aldrich, St. Louis, Mo.) emulsified in 2 mg of Alum (Imject Alum; Thermo Scientific, Pierce, Rockford, Ill.) on days 0, 7 and 14 in a total volume of 100 μL. The mice were then challenged intra-nasally (i.n.) with 1 mg/kg/d Ova for 5 days from days 23-27. Control mice were sensitized with Ova and challenged with saline. The chambers were also calibrated each time before data collection. Briefly, the nasal chamber in combination with the thoracic chamber allows the computation of specific airway resistance (sRaw). The FinePointe software computes specific airway resistance (sRaw) with all other ventilatory parameters derived by the NAM analyzer. Mice were exposed to aerosolized PBS (for the baseline measurement) or methacholine (1.5625-12.5 mg/mL) for 1 minute and readings were taken and averaged for 3 minutes after each nebulization. Data obtained were presented as sRaw versus the methacholine concentration (mg/mL) used to generate the aerosol. FIG. 5A-5F show compound effects on airway hyperresponsiveness. Specific airway resistance (sRaw) was measured at increasing dosages of methacholine by a DSI's Buxco FinePointe non-invasive airway mechanics instrument. Ova s/c BALB/c mice were administered all compounds via oral gavage, 100 mg/kg twice daily for 5 days. Data represent mean±SEM from 10 mice in each group. *, **, and *** indicate p<0.05, p<0.01, p<0.001 significance, respectively, compared to vehicle treated ova s/c BALB/c mice.

The subject of data set [2] is inflammatory cells, eosinophils, CD4+ T cells in BALF. Nature of the data set: Inflammatory cell numbers in BALF by flow cytometry. It counts as in vivo, ova s/c BALB/c mice. The following applies: 100 mg/kg twice daily for 5 days. On the procedure:
The change of the number of specific immune cells caused by compounds may be investigated in the bronchoalveolar lavage fluid (BALF) of Ova S/C mice. Therefore, a bronchoalveolar lavage may be carried out followed by the lysis of red blood cells. Incubation of cell-type specific antibodies with BALF may allow the quantification of leukocytes such as eosinophils and CD4^+ T-lymphocytes using flow cytometry.
Determination of anti-inflammatory properties of compounds were investigated in an allergen induced mouse model of asthma. At the day of analysis, bronchoalveolar lavage (BAL) was performed with 1 mL of Ca2+ and Mg2+ free PBS. Red blood cells (RBCs) were lysed using BD red blood cell lysis buffer (BD Pharmingen, San Jose, Calif.). BALF was split into four different tubes and non-specific binding to Fc receptors was blocked for 5 minutes using 6 μg/mL of 2.4G2 mouse BD Fc Block™ (BD Pharmingen, San Jose, Calif.). BALF cells were stained for 30 minutes at 4° C. in the dark with 100 μL BSA stain buffer (BD Pharmingen, San Jose, Calif.) containing the final concentrations of the following antibodies: anti-mouse CD45 APC (1:1000, 30-F11, Affymetrix eBiosciences, San Diego, Calif.), FITC rat anti-mouse CD4 (1:500, RM4-5, BD Pharmingen, San Jose, Calif.), PE Rat Anti-Mouse Siglec F (1:500, E50-2440, BD Pharmingen, San Jose, Calif.) and mouse CCR3 PE-conjugated antibody (1:40, 83101, R&D systems Inc, Minneapolis, Minn.). Flow cytometric studies were done using the BD FACS Calibur (BD Pharmingen, San Jose, Calif.) and data analyzed subsequently using Cell Quest pro software (BD Pharmingen, San Jose, Calif.). General gating for immune cells were followed. Total inflammatory cell count was obtained by running all samples on high (60 μL/min) for 180 seconds. The gated anti-mouse CD45 positive events in the fourth channel (FL4) were used to calculate the total inflammatory cell count as cells/mL. The frequencies of CCR3+/Siglec F were used for quantification of eosinophils and CD4+ for CD4+ T cell populations in their respective gates were multiplied by the total inflammatory cell count (cells/mL) to obtain the differential cell population. Statistical analysis: Data were analyzed using GraphPad Prism 4 (GraphPad Software, San Diego, Calif.) and expressed as mean±SEM. One-way analysis of variance (ANOVA) with Dunnet post hoc test or two-way ANOVA with Bonferroni post hoc test were performed for statistical difference for multiple groups. FIGS. 7A-7C show effects of compounds on inflammatory cells. Groups of 10 ova s/c BALB/c mice were administered compounds at 100 mg/kg twice daily for 5 days. BALF was harvested from each animal and used for (A) quantification of total inflammatory cells; (B) eosinophils; (C) CD4^+ T cells. Cells were stained with mouse CD45^+ APC antibody, and samples were analyzed with BD FACS Calibur on high flow rate (60 μl/minute) for 180 seconds. The gated positive events in the fourth channel (FL4) were used to calculate the total inflammatory cell count as cells/ml. Quantification of specific leukocyte population (B) eosinophils (C) CD4^+ T cell populations were stained with specific antibodies and detected by flow cytometry. Data represent mean±SEM from 10 mice in each group. *, **, and *** indicate p<0.05, p<0.01, and p<0.001 significance, respectively, compared to vehicle treated ova s/c BALB/c mice.
For orientation: Flow cytometry measures light scatter and fluorescence of single cells or particles in a stream.

The test system of data set [3] is HEK293. Kind of data set: Cytotoxicity, CellTiter-Glo cell viability assay, kidney cells. In kind it is cell-based, human. Here is the method: The cytotoxicity of compounds may be evaluated by treating HEK293 human embryonic kidney cells with increasing concentrations of compounds for 24-48 hours followed by the quantification of living cells using Cell-Titer Glo (Promega).
Compounds with increased cytotoxicity can be identified using an in vitro cytotoxicity assay. Therefore, human embryonic kidney 293T (HEK293T) cell lines were purchased (ATCC) and cultured in 75 cm2 flasks (CellStar). Cells were grown in DMEM/High Glucose (Hyclone, #SH3024301) media to which non-essential amino acids (Hyclone, #SH30238.01), 10 mM HEPES (Hyclone, #SH302237.01), 5×106 units of penicillin and streptomycin (Hyclone, #SV30010), and 10% of heat inactivated fetal bovine serum (Gibco, #10082147) were added. Cells were harvested using 0.05% Trypsin (Hyclone, #SH3023601). The cell viability assay was evaluated using CellTiter-Glo™ Luminescent Cell Viability Assay Kit (Promega, Madison, Wis.), which contains luciferase and all its substrate except ATP. The controls for the cytotoxicity assay used were (E)-10-(bromotriphenylphosphoranyl)decyl 4-(4-(tert-butyl)phenyl)-4-oxobut-2-enoate (400 μM in DMSO, positive control) and DMSO (negative control). All luminescence readings were performed on a Tecan Infinite M1000 plate reader. Small volume transfers were performed on the Tecan Freedom EVO liquid handling system with a 100 nL pin tool transfer (V&P Scientific). Serial dilutions were done in 96-well polypropylene plates (Corning, #3365) and assays were conducted in 384-well white optical bottom plates. The assays were carried out in quadruplet in three independent runs. The data were normalized to the controls and if possible analyzed by nonlinear regression (GraphPad Prism).
A general note: ATP-based viability assays read luminescence as a measure of living cells.

The test system of data set [4] is HEPG2. Nature of the data set: Cytotoxicity, liver cells. In kind it is cell-based, human.
Data set [5] is described as follows: Microsomal stability, mouse liver microsomes. The following applies: 10 μM compound. In kind it is in vitro ADME. Here is the method: (§1) The metabolic stability of compounds in vivo can be estimated with the stability of compounds in the presence of liver microsomes. Therefore, 4 μL of 1 mM DMSO solution of test compound at a final concentration of 10 μM were preincubated at 37° C. for 5 minutes on a digital heating shaking dry bath (Fischer scientific, Pittsburgh, Pa.) in a mixture containing 282 μL of water, 80 μL of phosphate buffer (0.5 M, pH 7.4) 20 μL of NADPH Regenerating System Solution A (BD Bioscience, San Jose, Calif.) and 4 μL of NADPH Regenerating System Solution B (BD Bioscience, San Jose, Calif.) in a total volume of 391.2 μL. Following preincubation, the reaction was initiated by addition of 8.8 μL of either human liver microsomes (BD Gentest, San Jose, Calif.) or mouse liver microsomes (Life technologies, Rockford, Ill.) at a protein concentration of 0.5 mg/mL. Aliquots of 50 μL were taken at time intervals of 0 (without microsomes), 10, 20, 30, 40, 50 and 60 minutes. Each aliquot was added to 100 μL of cold acetonitrile solution containing 1 μM of verapamil HCL as internal standard. This was followed by sonication for 10 seconds and centrifugation at 10,000 rpm for 5 minutes. 100 μL of the supernatant was transferred into Spin-X HPLC filter tubes (Corning Incorporated, NY) and centrifuged at 13,000 rpm for 5 minutes. The filtrate was diluted 100-fold and subsequently analyzed by LC-MS/MS with Shimadzu LCMS 8040, (Shimadzu Scientific Instruments, Columbia, Md.). The ratio of the peak areas of the internal standard and test compound was calculated for every time point and the natural log of the ratio were plotted against time to determine the linear slope (k). The metabolic rate (k*C0/C), half-life (0.693/k), and […] (V*k) were calculated, where k is the slope, C0 is the initial concentration of test compound, C is the concentration of microsomes, and V is the volume of incubation in μL per microsomal protein in mg. All experiments were repeated two time in triplicates.

The nature of data set [6]: Microsomal stability, human liver microsomes. It counts as in vitro ADME. The note with it: 10 μM compound. Here is the method: as §1
For orientation: Liver microsomes are vesicles of endoplasmic reticulum, rich in cytochrome P450 enzymes.

Data set [7] can be described thus: Pharmacokinetic analysis in blood, lungs and brain. The following applies: mouse, 25 mg/kg oral gavage.
The subject of data set [8] is guinea pig airway smooth muscle. Kind of data set: Relaxation of substance P contracted guinea pig tracheal rings. Also noted: dose or concentration left out as unconfirmed.

Where two headings read alike, the source gives them in different places. Where only a bound is given, the exact number is not on record here.

Regarding `C[C@H]1N=C(c2ccccc2F)c2cc(C3CC3)ccc2-n2cnc(C(=O)O)c21` [GL-III-43, (R)-8-cyclopropyl-6-(2-fluorophenyl)-4-methyl-4H-benzo[f]imidazo[1,5-a][1,4]diazepine-3-carboxylic acid], the “airway hyperresponsiveness (sRaw)” value in data set [1] is recorded as “not able to alleviate airway hyperresponsiveness”. Moreover, the “numbers of inflammatory cells in BALF” value in data set [2] was “did not modulate the numbers of inflammatory cells”.
With `CC(C)(C)OC(=O)c1ncn2c1[C@@H]1CCCN1C(=O)c1cc(O)ccc1-2` [RJ-02-67, tert-butyl (S)-7-hydroxy-9-oxo-11,12,13,13a-tetrahydro-9H-benzo[e]imidazo[5,1-c]pyrrolo[1,2-a][1,4]diazepine-1-carboxylate], in data set [3] (human, HEK293 (HEK293T) human embryonic kidney cells), the “LD50 HEK293 (Kidney)” value is over 400 µM. In addition, the “LD50 HEPG2 (Liver)” value in data set [4] (human, HepG2 liver cells) is over 400 µM. In data set [5], the “MLM % remaining after 60 min” value was 46.6 ± 0.3%. For the same compound, the “HLM % remaining after 60 min” value in data set [6] worked out at 90.6 ± 0.2%.
On to `COc1ccc2c(c1)C(=O)N1CCC[C@H]1c1c(-c3nnn[nH]3)ncn1-2` [RJ-03-57, (S)-7-methoxy-1-(1H-tetrazol-5-yl)-11,12,13,13a-tetrahydro-9H-benzo[e]imidazo[5,1-c]pyrrolo[1,2-a][1,4]diazepin-9-one], for which, in data set [3], the “LD50 HEK293 (Kidney)” value was over 200 µM. In data set [7], the absorption result is listed as “moderate absorption” and the clearance result is recorded as “fast clearance”. Moreover, the “LD50 HEPG2 (Liver)” value in data set [4] was over 200 µM. Also, the “airway hyperresponsiveness (sRaw)” value in data set [1] is given as “not able to alleviate airway hyperresponsiveness”. In data set [5], the “MLM % remaining after 60 min” value was 98.3 ± 0.2%. Besides, the “airway smooth muscle contractile force, guinea pig tracheal rings” value in data set [8] was “All investigated compounds except RJ-03-57 reduced the constriction of airway smooth muscle”. The “HLM % remaining after 60 min” value in data set [6] is 94.3 ± 0.1%.
For `O=C(O)c1ncn2c1[C@@H]1CCCN1C(=O)c1cc(O)ccc1-2` [RJ-03-90, (S)-7-hydroxy-9-oxo-11,12,13,13a-tetrahydro-9H-benzo[e]imidazo[5,1-c]pyrrolo[1,2-a][1,4]diazepine-1-carboxylic acid], the “numbers of inflammatory cells in BALF” value in data set [2] is recorded as “did not modulate the numbers of inflammatory cells”.
